Source: ChEMBL document CHEMBL1128697, “Synthesis of isoornithines and methylputrescines. An evaluation of their inhibitory effects on ornithine decarboxylase” (J Med Chem, 1995)

biological target: T1, Ornithine decarboxylase (Rattus norvegicus, UniProt P09057); assay: Inhibition of liver Ornithine decarboxylase in thioacetamide-treated rat
T1 sequence (P09057 whole entry): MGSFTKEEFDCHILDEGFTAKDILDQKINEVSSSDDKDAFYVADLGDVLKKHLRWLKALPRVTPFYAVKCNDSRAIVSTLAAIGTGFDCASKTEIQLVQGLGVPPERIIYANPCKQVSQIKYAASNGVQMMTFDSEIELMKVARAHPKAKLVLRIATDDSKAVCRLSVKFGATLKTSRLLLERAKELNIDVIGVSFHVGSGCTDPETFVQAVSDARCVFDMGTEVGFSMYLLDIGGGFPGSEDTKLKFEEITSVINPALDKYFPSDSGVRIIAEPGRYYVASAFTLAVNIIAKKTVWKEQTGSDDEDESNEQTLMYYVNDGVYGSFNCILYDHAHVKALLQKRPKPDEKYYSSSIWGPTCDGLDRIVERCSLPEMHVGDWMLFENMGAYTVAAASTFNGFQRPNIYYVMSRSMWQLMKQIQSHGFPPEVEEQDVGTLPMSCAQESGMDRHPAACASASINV

| Structure (SMILES) | Ki [mM] |
| --- | --- |
| CC(CN)C(CN)C(=O)O (stereo unspecified) | 0.72 |
| CC(C)(CN)C(C)(CN)C(=O)O (stereo unspecified) | > 11 |
| CC(CN)C(C)(CN)C(=O)O (stereo unspecified) | 1.65 |
| CC(C)(CN)C(CN)C(=O)O (stereo unspecified) | > 11 |
| CC(CN)C(C)(C)CN (stereo unspecified) | > 10.5 |
| NCCC(CN)C(=O)O (stereo unspecified) | 1.79 |
| CC(C)(CN)CCN | > 10 |
| CC(C)(CN)C(C)(C)CN | > 11 |
| CC(CN)C(C)CN (stereo unspecified) | 6.1 |
| CC(CN)(CCN)C(=O)O (stereo unspecified) | > 11 |
| NCCCCN [PUTRESCINE] | 3.5 |
